Source: patent publication US20240358693A1, “METHODS OF TREATING PAIN” (Aisa Pharma, Inc., priority 2023, published 2024)

Tested on: participants with SSc-RP
Assay: Scleroderma Health Assessment Questionnaire (SHAQ): disability indices and visual analog scales
Assay type: in vivo, human
Details: minus = improvement, two weeks of treatment
Description: The standard, validated, patient reported outcome measures tool for SSc patients, the Scleroderma Health Assessment Questionnaire (SHAQ), will be used to assess the participant qualify of life. Details are attached in the Appendix. The participant quality of life will be scored, and a disability index calculated for each questionnaire completed by the patient at Screening and each in-clinic visit. The absolute change in participant quality of life from baseline to the end of each dosing period will be calculated similar to frequency data as before.
The SHAQ includes a Raynaud's VAS, which will be reported at screening and each in-clinic visit. The absolute change in Raynaud-VAS, assessed by the participants response to the SHAQ question ‘In the past 7 days, how much have your Raynaud's interfered with your daily activities?’ at baseline and the end of each dosing period will be calculated similar to frequency data as before.
The SHAQ is used to calculate a Disability Index to assess the participant qualify of life. The eight categories assessed by the Disability Index are 1) dressing and grooming, 2) arising, 3) eating, 4) walking, 5) hygiene, 6) reach, 7) grip, and 8) common daily activities. For each of these categories, patients report the amount of difficulty they have in performing two or three specific activities.
There are four possible responses for the Disability Index questions: • Without any difficulty=0 • With some difficulty=1 • With much difficulty=2 • Unable to do=3. • The highest score reported by the patient for any component question of the eight categories determines the score for that category. • If a component question is left blank or the response is too ambiguous to assign a score, then the score for that category is determined by the remaining completed question(s). • If all component questions are blank or if more than one answer is given, then follow up with the respondent is required. • If the respondent's mark is between the response columns, then move it to the closest one. If it's directly between the two, move it to the higher one.
Each of the disability items on the SHAQ has a companion aids/devices variable that is used to record what type(s) of assistance, if any, the participant uses for his/her usual activities. These variables (see below) are coded as follows: • 0=No assistance is needed. • 1=A special device is used by the patient in his/her usual activities. • 2=The patient usually needs help from another person. • 3=The patient usually needs BOTH a special device AND help from another person.
The scoring variables and scoring rules permit the computation of two disability indices, the Standard Disability Index and the Alternative Disability Index.
This question results in a new set of category scores that are computed by adjusting the score for each category, if necessary, based on the patient's use of an aid or device or assistance for that category. If either devices and/or help from another person are checked for a category, the score is set to “2”, unless the score is already “3” (i.e., scores of “0” or “1” are increased to “2”). For example, if the highest score for the dressing category is “1”, and the patient says they use a device for dressing, the computed category score would be “2”. The sum of the computed categories scores is then calculated and divided by the number of categories answered. This gives a score in the 0 to 3 range.
The aid and device variables are not used to calculate the alternative disability index; it is calculated by adding the scores for each of the categories and dividing by the number of categories answered. This gives a score in the 0 to 3 range.
The standard, validated, patient reported outcome measures tool for SSc patients, the SHAQ, was collected at the time points specified in the study schedules (FIG. 2 and FIGS. 4A and 4B) to assess the participant's quality of life. The SHAQ included a Raynaud's VAS that will also be reported separately.

[1] = Cilnidipine 20 mg n = 3, with Tadalafil 5 mg n = 4

Compound: COCCOC(=O)C1=C(C)NC(C)=C(C(=O)OC/C=C/c2ccccc2)C1c1cccc([N+](=O)[O-])c1 (centres unmarked) [Cilnidipine 20 mg]
- SHAQ Alternative Disability Index, mean % change [1]: −42%
- SHAQ Breathing Difficulty, mean % change [1]: −73%
- SHAQ Burden of Fingers Ulcers, mean % change [1]: −17%
- SHAQ Overall Scleroderma, mean % change [1]: −63%
- SHAQ Pain, mean % change [1]: −53%
- SHAQ Raynaud’s Difficulty, mean % change [1]: −49%
- SHAQ Standard Disability Index, mean % change [1]: −50%
- SHAQ Intestinal Difficulty, mean % change (pooled, n = 7) (pooled, n = 7): −45% (pooled,
